Results from ChEMBL document CHEMBL4715746, “Polyvalent effect enhances diglycosidic antiplasmodial activity” (Eur J Med Chem, 2016).

Legend:
HEK293 [1] = assay: Cytotoxicity against human HEK293 cells assessed as reduction in cell viability at 50,000 ug/L incubated for 24 hrs by MTT assay; assay type: cell-based; conditions: hek293, 24 h
HEK293 [2] = assay: Cytotoxicity against human HEK293 cells assessed as reduction in cell viability up to 500 ug/L incubated for 24 hrs by MTT assay; assay type: cell-based; conditions: hek293, 24 h
Plasmodium falciparum [3] = assay: Antiplasmodial activity against chloroquine-resistant Plasmodium falciparum W2 assessed as inhibition of parasite growth incubated for 48 hrs by SYBR green 1 dye based fluorescence assay; assay type: functional, organism-based
Plasmodium falciparum [4] = assay: Antiplasmodial activity against chloroquine-sensitive Plasmodium falciparum 3D7 assessed as inhibition of parasite growth incubated for 48 hrs by SYBR green 1 dye based fluorescence assay; assay type: functional, organism-based
[5] = Plasmodium falciparum, W2, 48 h
[6] = Plasmodium falciparum, 3D7, 48 h

Row | SMILES | Activity (HEK293 [1]) | Activity (HEK293 [2]) | IC50 (Plasmodium falciparum [3]; [5]) [µM] | IC50 (Plasmodium falciparum [4]; [6]) [µM] | IC50 (Plasmodium falciparum [3]) [µM] | IC50 (Plasmodium falciparum [4]) [µM]
1 | CCCCCCCCCCCCCCCCO[C@@H]1O[C@H](COC(C)=O)[C@@H](O)[C@H](O)[C@H]1O[C@@H]1O[C@@H](C)[C@H](OC(C)=O)[C@@H](OC(C)=O)[C@H]1OC(C)=O | Toxic | Non-Toxic | 17.3 | 24.6 |  | 
2 | CO[C@@H]1O[C@H](COC(C)=O)[C@@H](O)[C@H](O)[C@H]1O[C@@H]1O[C@@H](C)[C@H](OC(C)=O)[C@@H](OC(C)=O)[C@H]1OC(C)=O |  |  | 100 | 143 |  | 
3 | CC(=O)OC[C@H]1O[C@@H](OCCCn2cc(COC[C@H]3O[C@@H](O[C@H]4[C@H](OCc5cn(CCCO[C@@H]6O[C@H](COC(C)=O)[C@@H](O)[C@H](O)[C@H]6O[C@@H]6O[C@@H](C)[C@H](OC(C)=O)[C@@H](OC(C)=O)[C@H]6OC(C)=O)nn5)[C@@H](OCc5cnnn5CCCO[C@@H]5O[C@H](COC(C)=O)[C@@H](O)[C@H](O)[C@H]5O[C@@H]5O[C@@H](C)[C@H](OC(C)=O)[C@@H](OC(C)=O)[C@H]5OC(C)=O)[C@H](OCc5cn(CCCO[C@@H]6O[C@H](COC(C)=O)[C@@H](O)[C@H](O)[C@H]6O[C@@H]6O[C@@H](C)[C@H](OC(C)=O)[C@@H](OC(C)=O)[C@H]6OC(C)=O)nn5)O[C@@H]4COCc4cn(CCCO[C@@H]5O[C@H](COC(C)=O)[C@@H](O)[C@H](O)[C@H]5O[C@@H]5O[C@@H](C)[C@H](OC(C)=O)[C@@H](OC(C)=O)[C@H]5OC(C)=O)nn4)[C@H](OCc4cnnn4CCCO[C@@H]4O[C@H](COC(C)=O)[C@@H](O)[C@H](O)[C@H]4O[C@@H]4O[C@@H](C)[C@H](OC(C)=O)[C@@H](OC(C)=O)[C@H]4OC(C)=O)[C@@H](OCc4cn(CCCO[C@@H]5O[C@H](COC(C)=O)[C@@H](O)[C@H](O)[C@H]5O[C@@H]5O[C@@H](C)[C@H](OC(C)=O)[C@@H](OC(C)=O)[C@H]5OC(C)=O)nn4)[C@H]3OCc3cnnn3CCCO[C@@H]3O[C@H](COC(C)=O)[C@@H](O)[C@H](O)[C@H]3O[C@@H]3O[C@@H](C)[C@H](OC(C)=O)[C@@H](OC(C)=O)[C@H]3OC(C)=O)nn2)[C@H](O[C@@H]2O[C@@H](C)[C@H](OC(C)=O)[C@@H](OC(C)=O)[C@H]2OC(C)=O)[C@@H](O)[C@@H]1O |  |  |  |  | 12.6 | 28.4
4 | CC(=O)OC[C@H]1O[C@@H](OCCCN=[N+]=[N-])[C@H](O[C@@H]2O[C@@H](C)[C@H](OC(C)=O)[C@@H](OC(C)=O)[C@H]2OC(C)=O)[C@@H](O)[C@@H]1O | Non-Toxic | Non-Toxic | 41.9 | 58.7 |  | 
5 | CC(=O)OC[C@H]1O[C@@H](OCCCn2cc(COC[C@H]3O[C@@H](OCc4cn(CCCO[C@@H]5O[C@H](COC(C)=O)[C@@H](O)[C@H](O)[C@H]5O[C@@H]5O[C@@H](C)[C@H](OC(C)=O)[C@@H](OC(C)=O)[C@H]5OC(C)=O)nn4)[C@H](OCc4cnnn4CCCO[C@@H]4O[C@H](COC(C)=O)[C@@H](O)[C@H](O)[C@H]4O[C@@H]4O[C@@H](C)[C@H](OC(C)=O)[C@@H](OC(C)=O)[C@H]4OC(C)=O)[C@@H](OCc4cn(CCCO[C@@H]5O[C@H](COC(C)=O)[C@@H](O)[C@H](O)[C@H]5O[C@@H]5O[C@@H](C)[C@H](OC(C)=O)[C@@H](OC(C)=O)[C@H]5OC(C)=O)nn4)[C@H]3OCc3cn(CCCO[C@@H]4O[C@H](COC(C)=O)[C@@H](O)[C@H](O)[C@H]4O[C@@H]4O[C@@H](C)[C@H](OC(C)=O)[C@@H](OC(C)=O)[C@H]4OC(C)=O)nn3)nn2)[C@H](O[C@@H]2O[C@@H](C)[C@H](OC(C)=O)[C@@H](OC(C)=O)[C@H]2OC(C)=O)[C@@H](O)[C@@H]1O |  |  | 21.9 | 13 |  | 
6 | CC(=O)OC[C@H]1O[C@@H](OCCCn2cc(COCCOCc3cn(CCCO[C@@H]4O[C@H](COC(C)=O)[C@@H](O)[C@H](O)[C@H]4O[C@@H]4O[C@@H](C)[C@H](OC(C)=O)[C@@H](OC(C)=O)[C@H]4OC(C)=O)nn3)nn2)[C@H](O[C@@H]2O[C@@H](C)[C@H](OC(C)=O)[C@@H](OC(C)=O)[C@H]2OC(C)=O)[C@@H](O)[C@@H]1O |  |  | 37.1 | 41.6 |  | 
7 | CC(=O)OC[C@H]1O[C@@H](OCCCn2cc(COCC(COCc3cn(CCCO[C@@H]4O[C@H](COC(C)=O)[C@@H](O)[C@H](O)[C@H]4O[C@@H]4O[C@@H](C)[C@H](OC(C)=O)[C@@H](OC(C)=O)[C@H]4OC(C)=O)nn3)(COCc3cn(CCCO[C@@H]4O[C@H](COC(C)=O)[C@@H](O)[C@H](O)[C@H]4O[C@@H]4O[C@@H](C)[C@H](OC(C)=O)[C@@H](OC(C)=O)[C@H]4OC(C)=O)nn3)COCc3cn(CCCO[C@@H]4O[C@H](COC(C)=O)[C@@H](O)[C@H](O)[C@H]4O[C@@H]4O[C@@H](C)[C@H](OC(C)=O)[C@@H](OC(C)=O)[C@H]4OC(C)=O)nn3)nn2)[C@H](O[C@@H]2O[C@@H](C)[C@H](OC(C)=O)[C@@H](OC(C)=O)[C@H]2OC(C)=O)[C@@H](O)[C@@H]1O |  |  | 25.2 | 28.1 |  | 
8 | CC(=O)OC[C@H]1O[C@@H](OCCCn2cc(COc3cc(OCc4cnnn4CCCO[C@@H]4O[C@H](COC(C)=O)[C@@H](O)[C@H](O)[C@H]4O[C@@H]4O[C@@H](C)[C@H](OC(C)=O)[C@@H](OC(C)=O)[C@H]4OC(C)=O)cc(OCc4cnnn4CCCO[C@@H]4O[C@H](COC(C)=O)[C@@H](O)[C@H](O)[C@H]4O[C@@H]4O[C@@H](C)[C@H](OC(C)=O)[C@@H](OC(C)=O)[C@H]4OC(C)=O)c3)nn2)[C@H](O[C@@H]2O[C@@H](C)[C@H](OC(C)=O)[C@@H](OC(C)=O)[C@H]2OC(C)=O)[C@@H](O)[C@@H]1O |  |  | 23.6 | 41.1 |  | 
9 | CCN(CC)CCCC(C)Nc1ccnc2cc(Cl)ccc12 (configuration not stated) [CHLOROQUINE] | Toxic | Non-Toxic |  |  |  | 
